Experimental data taken from ChEMBL document CHEMBL1145618, “Discovery of trypanocidal thiosemicarbazone inhibitors of rhodesain and TbcatB” (Bioorg Med Chem Lett, 2008).
pEC50, pIC50: −log10 of the molar value.

How the values were obtained:
[1] = Inhibition of Trypanosoma brucei rhodesain
[2] = Therapeutic index, ratio of EC50 for human Raji cells to EC50 for Trypanosoma brucei; type: cell-based; details: Raji cells (versus Trypanosoma brucei), read-out: Ratio EC50
Cathepsin B = Cathepsin B (Homo sapiens, UniProt P07858); test: Inhibition of human cathepsin B
[3] = Inhibition of Trypanosoma brucei cathepsin B
Procathepsin L = Procathepsin L (Homo sapiens, UniProt P07711); test: Inhibition of human cathepsin L
Sequence of Procathepsin L (P07711 whole entry): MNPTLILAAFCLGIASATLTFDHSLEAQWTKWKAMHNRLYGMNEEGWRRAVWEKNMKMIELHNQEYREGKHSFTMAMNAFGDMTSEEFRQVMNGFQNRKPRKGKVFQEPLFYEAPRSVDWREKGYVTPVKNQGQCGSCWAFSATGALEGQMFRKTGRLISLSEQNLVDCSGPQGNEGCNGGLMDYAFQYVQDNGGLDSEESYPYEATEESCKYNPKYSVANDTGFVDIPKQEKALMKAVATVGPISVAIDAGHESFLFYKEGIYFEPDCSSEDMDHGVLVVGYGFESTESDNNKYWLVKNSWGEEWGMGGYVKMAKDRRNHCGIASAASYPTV

Trypanosoma brucei = test: Antitrypanosomal activity against Trypanosoma brucei; type: functional, organism-based

| pIC50 (Cathepsin B) | pIC50 (Procathepsin L) | pEC50 (Trypanosoma brucei) | SMILES | pIC50 [1] | selectivity ratio [2] | pIC50 [3] |
| --- | --- | --- | --- | --- | --- | --- |
| 5.22 | 7.68 | 5.43 | NC(=S)N/N=C(/CCc1ccccc1)c1cccc(Cl)c1 | 7.38 | > 6.7 | < 4.60 |
| 6.52 | 8.44 | 5.15 | NC(=S)N/N=C(/c1cc(Cl)cc(Cl)c1)c1cccs1 | 7.96 | > 4 | 6.35 |
| 6.52 | 8.00 | 5.15 | NC(=S)N/N=C(/c1cc(C(F)(F)F)cc(C(F)(F)F)c1)c1cccs1 | 8.15 | > 4 | 6.82 |
| 4.66 | 6.93 | 5.22 | NC(=S)N/N=C(/CCc1ccccc1)c1cccc(F)c1 | 6.41 | > 4 | < 4.60 |
| 5.35 | 7.36 | < 5.00 | Cc1ccc(/C(=N/NC(N)=S)c2cccc(F)c2)cc1 | 7.05 | – | < 4.60 |
| 5.74 | 7.96 | 5.96 | Cc1ccc(/C(=N\NC(N)=S)c2cc(Cl)cc(Cl)c2)cc1 | 7.34 | > 9 | 5.22 |
| 4.89 | 5.99 | < 5.00 | Cc1ccc(/C(=N/NC(N)=S)c2ccccc2)cc1 | 6.30 | – | < 4.60 |
| 5.77 | 7.09 | 5.60 | NC(=S)N/N=C(/C=C/c1ccccc1)c1cccc(C(F)(F)F)c1 | 7.54 | > 10 | 5.15 |
| 5.31 | 7.41 | 5.89 | NC(=S)N/N=C(\CCc1ccccc1)c1cc(Cl)cc(Cl)c1 | 7.24 | > 19 | < 4.60 |
| 6.68 | 8.03 | 5.82 | Cc1ccc(/C(=N/NC(N)=S)c2cccc(C(F)(F)F)c2)cc1 | 8.10 | > 17 | 6.68 |
| 5.52 | 7.77 | 5.70 | NC(=S)N/N=C(\CCc1ccccc1)c1cc(C(F)(F)F)cc(C(F)(F)F)c1 | 7.28 | > 10 | < 4.60 |
| < 4.60 | 6.04 | < 5.00 | NC(=S)N/N=C(/CCc1ccccc1)c1ccccc1 | 5.82 | – | < 4.60 |
| 5.48 | 8.13 | 5.89 | Cc1ccc(/C(=N\NC(N)=S)c2cc(C(F)(F)F)cc(C(F)(F)F)c2)cc1 [THIOSEMICARBAZONE STANDARD] | 7.36 | > 19 | 4.82 |
